Experimental data as given in patent publication US8058332B2, “Phosphorus-sulfur FR additives and polymer systems containing same” (priority 2006, dated 2011).

type: physicochemical; details: TGA, nitrogen 60 mL/min, heating rate 10° C./min, room temperature to 600° C.
Description: A useful indicator of thermal stability is a 5% weight loss temperature, which is measured by thermogravimetric analysis as follows: ˜10 milligrams of the phosphorus-sulfur FR additive is analyzed using a TA Instruments model Hi-Res TGA 2950 or equivalent device, with a 60 milliliters per minute (mL/min) flow of gaseous nitrogen and a heating rate of 10° C./min over a range of from room temperature (nominally 25° C.) to 600° C. The mass lost by the sample is monitored during the heating step, and the temperature at which the sample has lost 5% of its initial weight is designated the 5% weight loss temperature (5% WLT). This method provides a temperature at which a sample undergoes a cumulative weight loss of 5 wt %, based on initial sample weight. […] When it is to be used in a melt-processing operation with a combustible polymer, the phosphorus-sulfur FR additive should have a 5% WLT of at least 150° C.

Compound	5% WLT
2,2′,2″,2″′-[1,2,4,6-phenylenetetra(methylthio)]tetra[5,5-dimethyl-1,3,2-dioxaphosphorinane]-2,2′,2″,2″′-sulfide [Example 7]	281 °C
2,2′-{1,4-phenylenebis[(dimethylsilanediyl)ethane-2,1-diylbicyclo[2.2.1]heptane-6,2-diylthio]}bis(5,5-dimethyl-1,3,2-dioxaphosphorinane) 2,2′-disulfide [Example 27]	285 °C
CC1(C)COP(=S)(SC/C=C/CSP2(=S)OCC(C)(C)CO2)OC1 [Example 1, 2,2′-[2-butene-1,4-diylbis(methylthio)]bis[5,5-dimethyl-1,3,2-dioxaphosphorinane]-2,2′-disulfide]	241 °C
CC1(C)COP(=S)(SCc2ccccc2CSP2(=S)OCC(C)(C)CO2)OC1 [Example 4, 2,2′-[1,2-phenylenebis(methylthio)]bis[5,5-dimethyl-1,3,2-dioxaphosphorinane]-2,2′-disulfide]	240 °C
CC1(C)COP(=O)(SCc2ccccc2CSP2(=O)OCC(C)(C)CO2)OC1 [Example 5, 2,2′-[1,2-phenylenebis(methylthio)]bis[5,5-dimethyl-1,3,2-dioxaphosphorinane]-2,2′-dioxide]	247 °C
Cc1c(CSP2(=S)OCC(C)(C)CO2)c(C)c(CSP2(=S)OCC(C)(C)CO2)c(C)c1CSP1(=S)OCC(C)(C)CO1 [Example 8, 2,2′,2″-[2,4,6-trimethyl-1,3,5-phenylenetris(methylthio)]tris[5,5-dimethyl-1,3,2-dioxaphosphorinane]-2,2′,2″-disulfide]	283 °C
CC1(C)COP(=S)(SCP(=O)(CSP2(=S)OCC(C)(C)CO2)CSP2(=S)OCC(C)(C)CO2)OC1 [Example 16]	243 °C
CC1(C)COP(=S)(Sc2nc(SP3(=S)OCC(C)(C)CO3)nc(SP3(=S)OCC(C)(C)CO3)n2)OC1 [Example 17, 2,2′,2″-[s-triazine-2,4,6-tris(thio)]tris[(5,5-dimethyl-1,3,2-dioxaphosphorinane)-2,2′,2″-sulfide]]	249 °C
CC1(C)COP(=S)(N(Cc2ccccc2)P2(=S)OCC(C)(C)CO2)OC1 [Example 18, N-benzyl-N-(5,5-dimethyl-2-sulfido-1,3,2-dioxaphosphorinan-2-yl)-5,5-dimethyl-1,3,2-dioxaphosphorinan-2-amine-2-sulfide]	202 °C
CC1(C)COP(=S)(Cc2ccccc2CP2(=S)OCC(C)(C)CO2)OC1 [Example 19, [1,2-phenylenebis(methylene)]bis[5,5-dimethyl[1,3,2]dioxaphosphorinane]2,2′-disulfide]	284 °C
CC1(C)COP(=S)(SCCCCSP2(=S)OCC(C)(C)CO2)OC1 [Example 20, 2,2′-[1,4-butylbis(methylthio)]bis[5,5-dimethyl-1,3,2-dioxaphosphorinane]-2,2′-disulfide]	244 °C
CC1(C)COP(=S)(SC2CC3CC2CC3SP2(=S)OCC(C)(C)CO2)OC1 (stereo not drawn) [Example 21, 2,2′-[bicyclo[2.2.1]heptane-2,5-diylbis(thio)]bis[5,5-dimethyl-1,3,2-dioxaphosphorinane]2,2′-disulfide]	264 °C
CCOC(=O)CC(SP1(=S)OCC(C)(C)CO1)C(=O)OCC (stereo not drawn) [Example 23]	218 °C
CC(CCCCCCC(C)SP1(=S)OCC(C)(C)CO1)SP1(=S)OCC(C)(C)CO1 (stereo not drawn) [Example 24, 2,2′-[decane-2,9-diylbis(thio)]bis(5,5-dimethyl-1,3,2-dioxaphosphorinane)2,2′-disulfide]	239 °C
CC1(C)COP(=S)(SC(c2ccccc2)c2ccccc2)OC1 [Example 25, 2-[(diphenylmethyl)thio]-5,5-dimethyl-1,3,2-dioxaphosphorinane 2-sulfide]	238 °C
O=P1(SC/C=C/CSP2(=O)Oc3ccccc3-c3ccccc32)Oc2ccccc2-c2ccccc21 (stereo not drawn) [Example 26]	270 °C
CC1(C)COP(=O)(Cc2ccc(CSP3(=S)OCC(C)(C)CO3)cc2)OC1 [Example 28, 2-({4-[(5,5-dimethyl-2-oxido-1,3,2-dioxaphosphorinan-2-yl)methyl]benzyl}thio)-5,5-dimethyl-1,3,2-dioxaphosphorinane-2-sulfide]	257 °C
O=P1(SCc2ccccc2CSP2(=O)Oc3ccccc3-c3ccccc32)Oc2ccccc2-c2ccccc21 (stereo not drawn) [Example 29, 6,6′-[1,2-phenylenebis(methylenethio)]bis(6H-dibenz[c, e][1,2]oxaphosphorin) 6,6′-dioxide]	262 °C
Cc1c(CSP2(=O)Oc3ccccc3-c3ccccc32)c(C)c(CSP2(=O)Oc3ccccc3-c3ccccc32)c(C)c1CSP1(=O)Oc2ccccc2-c2ccccc21 (stereo not drawn) [Example 30, 6,6′,6″-[(2,4,6-trimethylbenzene-1,3,5-triyl)tris(methylenethio)]tris(6H-dibenzo-[c, e][1,2]oxaphosphorin) 6,6′,6″-trioxide]	219 °C
CC(COCC(COCC(C)SP1(=S)OCC(C)(C)CO1)(COCC(C)SP1(=S)OCC(C)(C)CO1)COCC(C)SP1(=S)OCC(C)(C)CO1)SP1(=S)OCC(C)(C)CO1 (stereo not drawn) [Example 31]	241 °C
CC1(C)COP(=S)(SCc2c(CSP3(=S)OCC(C)(C)CO3)c(CSP3(=S)OCC(C)(C)CO3)c(CSP3(=S)OCC(C)(C)CO3)c(CSP3(=S)OCC(C)(C)CO3)c2CSP2(=S)OCC(C)(C)CO2)OC1 [Example 33, 2,2′,2″,2″′,2″″′,2″″″-[benzene-1,2,3,4,5,6-hexaylhexakis(methylenethio)]hexakis(5,5-dimethyl-1,3,2-dioxaphosphorinane) 2,2′,2″,2″′,2′″″,2″″″-hexasulfide]	262 °C
CC1(C)COP(=S)(SCCC(=O)NCNC(=O)CCSP2(=S)OCC(C)(C)CO2)OC1 [Example 36]	220 °C
CC1(C)COP(=S)(SC(c2ccccc2)c2cccc(C(SP3(=S)OCC(C)(C)CO3)c3ccccc3)c2)OC1 (stereo not drawn) [Example 37, 2,2′-{1,3-phenylenebis[(phenylmethylene)thio]}bis(5,5-dimethyl-1,3,2-dioxaphosphorinane) 2,2′-disulfide]	259 °C
S=P1(CC(c2ccccc2)c2ccccc2)OCC2(CO1)COP(=S)(SC(c1ccccc1)c1ccccc1)OC2 (stereo not drawn) [Example 38]	240 °C
